Measurements: patent US20230058557A1, “TRANSPLANTED CELL PROTECTION VIA INHIBITION OF POLYMORPHONUCLEAR CELLS” (The Regents of the University of California, priority 2020, published 2023)
“Also recorded” adds a separate entry of the source. Like-named read-outs stand apart in the source and are kept apart here.

Columns and labels:
human PMNs = type: cell-based
Experimental: A comprehensive human immune assay was established using the XCelligence in vitro impedance system that obtains real-time kinetics of target cell killing. (ACEA BioSciences, San Diego, Calif., Catalog No. 00380601040). Wild-type (wt) and engineered iPSCs were differentiated into endothelial cells for this assay. […] Some experimental groups were treated with IL-2 (1 ng/ml), which is a central cytokine involved in allograft rejection. The assays were run for a duration of 90 h which is the maximum time period iECs can be cultured in this system before the monolayer breaks down spontaneously.
The immune system not only distinguishes between “self” and “non-self”, but also reacts to “danger” signals: released by autologous cells in distress. Matzinger, Ann. Rev. Immunol. 12:991-1045 (1994), incorporated by reference herein in its entirety. Intracellular components, released by damaged cells, can act as adjuvants and boost immune activation to alarm the immune system of cell death. Because apoptosis activates programmed cell death pathways aimed at digesting intracellular proteins, apoptotic cells are considered weak releasers of danger signals. […] For our in vitro assays, 20,000 target cells were sonicated to disrupt their cell membrane and release DAMPs and the cell debris was added to prior grown and confluent target iEC layer in Xcelligence assays.
Thus, for DAMP-activated XCelligence assays, iECs were plated and in addition to the immune effector cells, 20,000 sonicated target cells were added at the same time. […]
Ligands for CD200R and PIRLα are CD200 and CD99, respectively. Recombinant human CD200 Fc chimera proteins (R&D Systems, Minneapolis, Minn., Catalog no. 2724-CD-050) and CD99 Fc chimera proteins (R&D Systems, Minneapolis, Minn., Catalog no. 3968-CD-050) engage these receptors. These Fc chimera proteins were added to the assays at 10 μg/ml. There is no known ligand for SIRL-1 but there is an activating monoclonal SIRL-1 antibody to trigger downstream inhibitory signaling (Steevels T A., Eur J. Immunol. 43(5):1297-308 (2013)). The human PMNs were activated via DAMPs or IL-2 and the killing of human wt and HIP iECs was assessed (FIG. 8).
BAY 85-8501 was used at 1 nM or 1 μM concentrations. The effector PMNs were stimulated with sonicated cells or IL-2.
Activating receptors include the family of toll-like receptors (TLRs) that are activated by a wide range of ligands including DAMPs. PMN activation pathways were inhibited by TAK-242 (MedChem Express, Monmouth Junction, N.J., Catalog No. HY-11109, 10 μM for in vitro Xcelligence assays), a small-molecule inhibitor of TLR-4-mediated signaling. Wild-type and HIP cells were used on the XCelligence platform using PMNs as effector cells (FIG. 13). Necrotic cells or IL-2 were used as PMN stimulators.

[1] = in mice; cited from earlier work
[2] = 10 μM, DAMP- or IL-2 activated PMNs
[3] = PMNs activated via DAMPs (necrotic/sonicated cells), Fc chimera proteins 10 μg/ml
[4] = PMNs stimulated with IL-2, Fc chimera proteins 10 μg/ml

Which “PMN killing of wt and HIP iECs” value (human PMNs; [2]) does the source give for COc1cc(C(C)=O)ccc1O [Apocynin] here?
Its value is “diminished”.

What does the source list for CC1=C(C#N)[C@@H](c2ccc(C#N)cc2S(C)(=O)=O)N(C)C(=O)N1c1cccc(C(F)(F)F)c1 [BAY 85-8501]?
PMN killing of wt or HIP target cells (human PMNs; 1 nM, compared with 1 μM): less effective; PMN killing of wt or HIP target cells (human PMNs; 1 μM, PMNs activated via DAMPs from sonicated cells): fully prevented; PMN killing of wt or HIP target cells (human PMNs; 1 μM, in the presence of IL-2): further delayed the target cell killing

For CC[C@H](Nc1ncnc2[nH]cnc12)c1nc2cccc(F)c2c(=O)n1-c1ccccc1 [Idelalisib], which “PMN killing of wt and HIP iECs” value (human PMNs; [2]) is on record?
The value was “mildly diminished PMN killing”.

With CCOC(=O)C1=CCCC[C@H]1S(=O)(=O)Nc1ccc(F)cc1Cl [TAK-242] as the molecule, how does the “PMN killing of wt and HIP iECs, efficacy by stimulator” value (human PMNs; 10 μM, DAMPs compared with IL-2) read?
The value was “stronger”.

And the “PMN killing of wt and HIP iECs” value (human PMNs; 10 μM, IL-2)?
The value was “still markedly reduced”.

And the “PMN killing of wt and HIP iECs” value (human PMNs; 10 μM, necrotic cells (DAMPs) or IL-2 as PMN stimulators)?
The value was “diminished PMN killing”.

Which “PMN killing of wt and HIP iECs” value (human PMNs; 1 μM monotherapy, DAMP or IL-2 activated PMNs) does the source give for COc1cc2c(c(OC)c1OC)-c1ccc(OC)c(=O)cc1[C@@H](NC(C)=O)CC2 [colchicine] here?
Its value is “mild inhibitor; also recorded: only marginal efficacy”.

For “A1AT: Alpha-1 antitrypsin, Neutrophil Elastase inhibitor (Sigma-Aldrich A9024)”, which “PMN killing of wt and HIP iECs” value (human PMNs; 30 μM recombinant A1AT) is on record?
The value was “minorly effective; also recorded: some minor activity against PMN killing”.

What about the “Half-life of A1AT” value [1] of the same molecule?
Its value is “approx. 4.5 days”.

B1: CD200 Fc chimera: Recombinant human CD200 Fc chimera protein (R&D Systems 2724-CD-050), ligand for CD200R (protein)
chain: QVQVVTQDEREQLYTPASLKCSLQNAQEALIVTWQKKKAVSPENMVTFSENHGVVIQPAYKDKINITQLGLQNSTITFWNITLEDEGCYMCLFNTFGFGKISGTACLTVYVQPIVSLHYKFSEDHLNITCSATARPAPMVFWKVPRSGIENSTVTLSHPNGTTSVTSILHIKDPKNQVGKEVICQVLHLGTVTDFKQTVNKG
modifications: left off: a dimerising Fc or GST
notes: Recombinant human CD200 Fc chimera protein (R&D Systems 2724-CD-050), ligand for CD200R
For B1, which “PMN killing of wt and HIP iECs” value (human PMNs; [3]) is on record?
Its value is “prevented PMN killing”.

What about the “PMN killing of wt and HIP iECs” value (human PMNs; [4]) of the same molecule?
The value was “somewhat delayed”.

And the “PMN killing of wt and HIP iECs” value (human PMNs; PMNs stimulated with IL-2, Fc chimera proteins 10 μg/ml, listed as recombinant CD200)?
Its value is “delayed but not prevented”.

B2: CD99 Fc chimera: Recombinant CD99 Fc chimera protein (R&D Systems 3968-CD-050), ligand for PIRLα (protein)
chain: DGGFDLSDALPDNENKKPTAIPKKPSAGDDFDLGDAVVDGENDDPRPPNPPKPMPNPNPNHPSSSGSFSDADLADGVSGGEGKGGSDGGGSHRKEGEEAD
modifications: left off: a dimerising Fc or GST
notes: Recombinant CD99 Fc chimera protein (R&D Systems 3968-CD-050), ligand for PIRLα
With B2 as the molecule, how does the “PMN killing of wt and HIP iECs” value (human PMNs; [3]) read?
The value was “prevented PMN killing”.

What about the “PMN killing of wt and HIP iECs” value (human PMNs; [4]) of the same molecule?
The value was “somewhat delayed”.

And the “PMN killing of wt and HIP iECs” value (human PMNs; PMNs stimulated with IL-2, Fc chimera proteins 10 μg/ml, listed as CD99)?
Its value is “delayed but not prevented”.
